Where a SMILES comes first, the peptide text is derived from it. Bridges are numbered along the chain shown (N, C = ends). The star is where a group is joined. MeO(CH2CH2O)23CH2CH2CO = COCCOCCOCCOCCOCCOCCOCCOCCOCCOCCOCCOCCOCCOCCOCCOCCOCCOCCOCCOCCOCCOCCOCCOCCC(=O)*
How the values were obtained:
[1] = tested on: wild-type mouse femurs and tibias; assay: mouse organ culture model of endochondral bone growth, wild-type bones; details: for longitudinal growth of wild-type mouse femur ex vivo: 8 days
Protocol: (§1) To determine the efficacy of CNP variants in stimulating longitudinal bone growth, CNP variants were tested in a mouse organ culture model of endochondral bone growth in wild-type mice and transgenic mice having a G380R mutation in the human FGFR-3 gene (FGFR3^wt/Ach heterozygote) which represent a mouse model of mild achondroplasia. In brief, the pharmacological activity of wild-type CNP22 and CNP variants was compared in an organ culture model of embryonic or neonatal mouse tibiae, isolated from wild-type and FGFR3^wt/Ach littermates. Overall bone growth and histological changes within the growth plate were assessed. Conditioned culture medium is also assessed for biomarkers of intracellular signaling (cGMP), cartilage metabolism (type II collagen, other collagens, aggrecan chondroitin sulfate), bone metabolism (bone alkaline phosphatase, osteocalcin, type I collagen [C-telopeptide, N-telopeptide]), and inflammation (interleukin-1, interleukin 6, interleukin-11).
(§2) The efficacy of wtCNP22, CNP37 and PEO24-[…]22(K4R) (SEQ ID NO: 36) in stimulating longitudinal femoral growth was evaluated in the mouse organ culture model. For these experiments femora were isolated from 2-3 day old wild-type mice and cultured in alphaMEM supplemented with 0.2% BSA, 0.5 mM L-glutamine, 40 units penicillin/mL and 40 ug streptomycin/mL, for 8 days in the presence of vehicle, CNP22 or CNP variants. The treatment commenced at day 0 and was repeated every two days thereafter, as the medium was changed. Bones were measured prior to treatment and every two days thereafter, using a dissection microscope fitted with a 1 cm eye-piece reticule. Conditioned medium was used for biomarker analysis. At day 8 bones were fixed in 4% paraformaldehyde for 24 hr, decalcified in 5% formic acid for 24 hrs, dehydrated and embedded in paraffin. Bones were sectioned at 5 um (microns), which were then deparaffinized, rehydrated, and stained with Alcian Blue for 30 min (pH 2.5; MasterTech). Alcian Blue stains cartilage blue. Stained sections were visualized and photographed by brightfield microscopy. The thickness of the hypertrophic region of the growth plate cartilage was determined by image analysis.
In addition to the distribution of CNP variants in the bone growth plate, the ex vivo effects of CNP37, CNP22 and vehicle on cells in the FGFR3^ach and wild-type growth plate, e.g., hypertrophic cell size and cellularity of proliferating zone, were also evaluated. Bone samples were prepared, including Alcian Blue staining, as described above. Images of the entire proximal growth plate were taken at 4× magnitude. The growth plate is divided into three zones, starting from the epiphyseal side of cartilage: the resting zone (individual small chondrocytes), proliferating zone (columns of stacked chondrocytes parallel to the long axis of the bone), and hypertrophic zone (large chondrocytes and thin septa between the chondrocytes). In these regions, measurements were made by ImageJ software, including the number of proliferating chondrocytes per column and the density of hypertrophic chondrocytes. […] The cell size of hypertrophic chondrocytes was calculated by 1 over determined cell density. […]
Femurs and tibias were isolated from wild-type and FGFR3^ach mice as described above. […] On the eighth day, media was collected and analyzed for the biomarkers cGMP (cyclic guanosine 3′, 5′ cyclic monophosphate) and fragments of cleaved collagen type II, a cartilage-specific marker for cartilage turnover. […]

[2] = tested on: FGFR3^ach mouse femurs and tibias; assay: mouse organ culture model of endochondral bone growth, FGFR3^ach bones
Protocol: as §1, §2
Furthermore, ex vivo distribution of CNP37 in the growth plate of FGFR3^ach mouse tibia was evaluated. Bone samples were prepared as described above. Paraffin sections were cut and heat fixed for 1 hour at 60° C. Antigen retrieval with 1% hyaluronidase at 37° C. (30 minutes) was followed by a 1 hour serum block (10% Normal Goat Serum). […]
In addition to the distribution of CNP variants in the bone growth plate, the ex vivo effects of CNP37, CNP22 and vehicle on cells in the FGFR3^ach and wild-type growth plate, e.g., hypertrophic cell size and cellularity of proliferating zone, were also evaluated. […]

SMILES: CC[C@H](C)[C@@H]1NC(=O)[C@H](CCCNC(=N)N)NC(=O)[C@H](CC(=O)O)NC(=O)[C@H](CC(C)C)NC(=O)[C@H](CCCCN)NC(=O)[C@H](CC(C)C)NC(=O)CNC(=O)[C@H](Cc2ccccc2)NC(=O)[C@@H](NC(=O)CNC(=O)[C@H](CCCNC(=N)N)NC(=O)[C@H](CO)NC(=O)[C@H](CC(C)C)NC(=O)CNC(=O)[C@H](CCCNC(=N)N)NC(=O)[C@H](CCCNC(=N)N)NC(=O)[C@H](CC(N)=O)NC(=O)[C@H](C)NC(=O)CNC(=O)CCOCCOCCOCCOCCOCCOCCOCCOCCOCCOCCOCCOCCOCCOCCOCCOCCOCCOCCOCCOCCOCCOCCOCCOC)CSSC[C@@H](C(=O)O)NC(=O)CNC(=O)[C@H](CC(C)C)NC(=O)CNC(=O)[C@H](CO)NC(=O)[C@H](CCSC)NC(=O)[C@H](CO)NC(=O)CNC1=O [PEO24-GANRR-CNP22(K4R)] ({MeO(CH2CH2O)23CH2CH2CO}-GANRRGLSRGCFGLKLDRIGSMSGLGC-OH; disulfide 11-27)
- cGMP levels in conditioned media ([1]; ex-planted wild-type mouse femurs and tibias, day 8): large increase (p<0.01)
- longitudinal growth of wild-type mouse tibia ex vivo ([1]; treated every two days): increased the longitudinal growth of the tibia compared to vehicle or CNP22
- longitudinal growth of wild-type mouse femur ex vivo ([1]; treated every two days): the most effective
- longitudinal growth of wild-type mouse femur ex vivo ([1]; treated every two days, listed as PE024-GANRR-CNP22(K4R)): stimulated the growth of wild-type mouse femur
- levels of cleaved collagen type II in conditioned media ([1]; wild-type mouse femurs): increased
- levels of cleaved collagen type II in conditioned media ([2]; FGFR3^ach mouse femurs): significantly increased (p<0.05)
- cGMP levels in conditioned media ([2]; ex-planted FGFR3^ach mouse femurs and tibias, day 8): large increase (p<0.01)
- longitudinal growth of FGFR3^ach mouse femur ex vivo ([2]; treated every two days): increased the longitudinal growth of FGFR3^ach mouse femur compared to vehicle
- longitudinal growth of FGFR3^ach mouse tibia ex vivo ([2]; treated every two days): increased the longitudinal growth of the tibia compared to vehicle or CNP22
